Results as given in ChEMBL document CHEMBL3885881, “DrugMatrix”.

Species on record: Rattus norvegicus
Format: toxicity, organism-based, Sprague-Dawley
Conditions: in vivo, ip, 24 h, route intraperitoneal, time 1 day, vehicle 100 % SALINE; for ABSOLUTE EOSINOPHIL / ABSOLUTE LYMPHOCYTE / ABSOLUTE MONOCYTE / ABSOLUTE SEGMENTED NEUTROPHIL / BASOPHIL / EOSINOPHIL / ERYTHROCYTE COUNT / HEMATOCRIT / HEMOGLOBIN / LEUKOCYTE COUNT / LYMPHOCYTE / MEAN CORPUSCULAR HEMOGLOBIN / MEAN CORPUSCULAR HEMOGLOBIN CONCENTRATION / MEAN CORPUSCULAR VOLUME / MONOCYTE / NEUTROPHIL / NUCLEATED RED BLOOD CELLS / PLATELET COUNT: tissue Blood; for ALANINE AMINOTRANSFERASE / ALKALINE PHOSPHATASE / ASPARTATE AMINOTRANSFERASE / BLOOD UREA NITROGEN / CARBON DIOXIDE / CHLORIDE / CHOLESTEROL / CREATININE / GLUCOSE / LACTATE DEHYDROGENASE / LIPASE / PHOSPHORUS / POTASSIUM / SODIUM / TOTAL BILIRUBIN / TOTAL PROTEIN / URIC ACID: tissue Plasma
[1] = 0 mg/kg, vehicle control, dose level Control

Description: DrugMatrix - Regimen: Single

SMILES: CC[C@H]1CN2CCc3cc(OC)c(OC)cc3[C@@H]2C[C@@H]1C[C@H]1NCCc2cc(OC)c(OC)cc21 [EMETINE]
- ABSOLUTE EOSINOPHIL [1]: 77.5 CELLS/uL
- ABSOLUTE LYMPHOCYTE [1]: 12568.83 CELLS/uL
- ABSOLUTE MONOCYTE [1]: 704.67 CELLS/uL
- ABSOLUTE SEGMENTED NEUTROPHIL [1]: 2365.67 CELLS/uL
- BASOPHIL [1]: 0%
- EOSINOPHIL [1]: 0.5%
- ERYTHROCYTE COUNT [1]: 5.83 x10E6/uL
- HEMATOCRIT [1]: 36.08%
- HEMOGLOBIN [1]: 13.22 G/DL
- LEUKOCYTE COUNT [1]: 15.72 x10E3/uL
- LYMPHOCYTE [1]: 80%
- MEAN CORPUSCULAR HEMOGLOBIN [1]: 22.68 pg
- MEAN CORPUSCULAR HEMOGLOBIN CONCENTRATION [1]: 36.63 G/DL
- MEAN CORPUSCULAR VOLUME [1]: 61.88 fL
- MONOCYTE [1]: 4.5%
- NEUTROPHIL [1]: 15%
- NUCLEATED RED BLOOD CELLS [1]: 0 /100WBC
- PLATELET COUNT [1]: 1020.5 x10E3/uL
- ALANINE AMINOTRANSFERASE [1]: 43.33 u/L
- ALKALINE PHOSPHATASE [1]: 368 u/L
- ASPARTATE AMINOTRANSFERASE [1]: 93 u/L
- BLOOD UREA NITROGEN [1]: 12.33 mg/dL
- CARBON DIOXIDE [1]: 27.17 mmol/L
- CHLORIDE [1]: 99.5 MEQ/L
- CHOLESTEROL [1]: 65.67 mg/dL
- CREATININE [1]: 0.23 mg/dL
- GLUCOSE [1]: 181.67 mg/dL
- LACTATE DEHYDROGENASE [1]: 380.17 u/L
- LIPASE [1]: 9.33 u/L
- PHOSPHORUS [1]: 13.1 mg/dL
- POTASSIUM [1]: 6.28 MEQ/L
- SODIUM [1]: 143.03 MEQ/L
- TOTAL BILIRUBIN [1]: 0.18 mg/dL
- TOTAL PROTEIN [1]: 6.12 G/DL
- URIC ACID [1]: 2.47 mg/dL
- ABSOLUTE EOSINOPHIL (1 mg/kg, dose level High): 92 CELLS/uL
- ABSOLUTE LYMPHOCYTE (1 mg/kg, dose level High): 11430 CELLS/uL
- ABSOLUTE MONOCYTE (1 mg/kg, dose level High): 510 CELLS/uL
- ABSOLUTE SEGMENTED NEUTROPHIL (1 mg/kg, dose level High): 1901.33 CELLS/uL
- BASOPHIL (1 mg/kg, dose level High): 0%
- EOSINOPHIL (1 mg/kg, dose level High): 0.67%
- ERYTHROCYTE COUNT (1 mg/kg, dose level High): 5.8 x10E6/uL
- HEMATOCRIT (1 mg/kg, dose level High): 35.23%
- HEMOGLOBIN (1 mg/kg, dose level High): 12.63 G/DL
- LEUKOCYTE COUNT (1 mg/kg, dose level High): 13.93 x10E3/uL
- LYMPHOCYTE (1 mg/kg, dose level High): 82%
- MEAN CORPUSCULAR HEMOGLOBIN (1 mg/kg, dose level High): 21.77 pg
- MEAN CORPUSCULAR HEMOGLOBIN CONCENTRATION (1 mg/kg, dose level High): 35.87 G/DL
- MEAN CORPUSCULAR VOLUME (1 mg/kg, dose level High): 60.83 fL
- MONOCYTE (1 mg/kg, dose level High): 3.67%
- NEUTROPHIL (1 mg/kg, dose level High): 13.67%
- NUCLEATED RED BLOOD CELLS (1 mg/kg, dose level High): 0 /100WBC
- PLATELET COUNT (1 mg/kg, dose level High): 1110.67 x10E3/uL
- ALANINE AMINOTRANSFERASE (1 mg/kg, dose level High): 45.67 u/L
- ALKALINE PHOSPHATASE (1 mg/kg, dose level High): 344 u/L
- ASPARTATE AMINOTRANSFERASE (1 mg/kg, dose level High): 124 u/L
- BLOOD UREA NITROGEN (1 mg/kg, dose level High): 13.33 mg/dL
- CARBON DIOXIDE (1 mg/kg, dose level High): 27 mmol/L
- CHLORIDE (1 mg/kg, dose level High): 100 MEQ/L
- CHOLESTEROL (1 mg/kg, dose level High): 66.67 mg/dL
- CREATININE (1 mg/kg, dose level High): 0.22 mg/dL
- GLUCOSE (1 mg/kg, dose level High): 182 mg/dL
- LACTATE DEHYDROGENASE (1 mg/kg, dose level High): 467.33 u/L
- LIPASE (1 mg/kg, dose level High): 9.33 u/L
- PHOSPHORUS (1 mg/kg, dose level High): 14.17 mg/dL
- POTASSIUM (1 mg/kg, dose level High): 6.56 MEQ/L
- SODIUM (1 mg/kg, dose level High): 143.9 MEQ/L
- TOTAL BILIRUBIN (1 mg/kg, dose level High): 0.17 mg/dL
- TOTAL PROTEIN (1 mg/kg, dose level High): 6.07 G/DL
- URIC ACID (1 mg/kg, dose level High): 2.17 mg/dL
